{
  "source": "patent US20240390369A1",
  "about": "“METHODS FOR DETERMINING RESPONSIVENESS TO TYK2 INHIBITORS” (Bristol-Myers Squibb Company, priority 2021, published 2024)",
  "test_system": "patients with psoriatic arthritis",
  "assay": "Phase 2 trial in psoriatic arthritis: ACR20 response at week 16",
  "assay_type": "in vivo, human",
  "conditions": "for ACR20 response rate over time: placebo, sixteen-week treatment period; for Odds Ratio, ACR20 response status / Odds Ratio for ACR20 response: All patients",
  "protocol": "In a double-blind Phase 2 trial, 203 patients with psoriatic arthritis were randomized into three groups: deucravacitinib 6 mg once daily (N=70), deucravacitinib 12 mg once daily (N=67), or placebo (N=66). All subjects had active psoriatic arthritis according to the Classification Criteria for Psoriatic Arthritis (CASPAR); for active disease, these criteria required ≥3 tender joint count, ≥3 swollen joint count, and a C-reactive protein level above 3 mg/L. Other inclusion criteria included the following: presence of at least one plaque psoriasis lesion, and prior treatment failure with a non-biologic disease modifying anti-rheumatic drug, a non-steroidal anti-inflammatory drug, or a steroid. With respect to treatment history, approximately 70% of subjects had not received prior treatment with a biologic and were biologic naïve, while up to 30% of subjects had failed or had been intolerant to one TNF-inhibitor (TNF=Tumor necrosis factor, also known as TNFα). Randomization was stratified by prior TNF-inhibitor use (experienced/naïve) and body weight (<90 kg and ≥90 kg).\nClinical measures included the Psoriasis […] (PASI) score for skin psoriasis, American College of Rheumatology 20 (ACR20) response, Psoriatic Arthritis Disease Activity Score (PASDAS), Health Assessment Questionnaire-Disability Index (HAQ-DI), and Disease Activity Score 28 CRP (DAS28). To evaluate the predictive value of different protein measurements for the clinical response to deucravacitinib, baseline protein concentrations for responders and non-responders, as defined by ACR20 or PASI75 at week 16, were compared for each arm (placebo, 6 mg deucravacitinib once-daily, and 12 mg deucravacitinib once-daily).\nBoxplots for baseline protein level by response were generated with a horizontal line indicating the median protein level at baseline. For each treatment arm, a two-sample t-test was performed to test whether mean baseline serum protein level was different in responders versus non-responders. A Wilcoxon rank sum test (Mann-Whitney U test) was also performed to evaluate the difference in median serum protein level between responders and non-responders. Further, barplots of ACR20 and PASI75 response rate at week 16 for each treatment arm were generated for all subjects (protein level high and protein level low subjects, dichotomized according to median baseline level). Line plots of ACR20 and PASI75 response rate over time for each treatment arm were generated for protein level high and protein level low groups. Logistic regression models were also fit to evaluate associations between baseline protein levels and clinical outcome.\nFor certain analyses described herein, patients were dichotomized by median values (e.g., of the proteins listed above or other measures) into “high” and “low” groups, such that the high group had values above the median and the low group had values less than or equal to the median.\nIn addition, logistic regression models were fit for response measures ACR20 and PASI75, to generate the odds ratio of each of the deucravacitinib treatment arms versus placebo, in BD2-high and BD2-low groups. The following logistic regression models were used: • For ACR20 response status: ACR20 (Y/N)=treatment arm+BD2 group+treatment arm*BD2 group+TNF-inhibitor use+baseline weight (continuous). • For PASI75 response status: PASI75 (Y/N)=treatment arm+BD2 group+treatment arm*BD2 group+TNF-inhibitor use+baseline weight (continuous). […] FIGS. 26-31 are forest plots summarizing the logistic regression results of these models (for BD2 and other biomarkers described herein); each “N,” for “Placebo” and “Deucrava,” represents the number of responders in that group. […]",
  "key": {"[1]": {"conditions": "6 mg QD, Above median baseline CRP level"}, "[2]": {"conditions": "6 mg QD, Below median baseline CRP level"}, "[3]": {"conditions": "12 mg QD, Above median baseline CRP level"}, "[4]": {"conditions": "12 mg QD, Below median baseline CRP level"}},
  "data": [
    {"smiles": "[2H]C([2H])([2H])NC(=O)c1nnc(NC(=O)C2CC2)cc1Nc1cccc(-c2ncn(C)n2)c1OC", "note": "[deucravacitinib, 6-(cyclopropanecarboxamido)-4-((2-methoxy-3-(1-methyl-1H-1,2,4-triazol-3-yl)phenyl)amino)-N-(methyl-d3)pyridazine-3-carboxamide]", "values": [
      {"measurement": "Interaction Term for ACR20 response (ratio of odds ratios)", "setting": "6 mg QD vs placebo: BD2 high versus BD2 low, week 16", "value": 3.16},
      {"measurement": "Interaction Term: treatment arm*CRP group, ACR20", "setting": "6 mg QD vs placebo: CRP high versus CRP low", "value": 0.786},
      {"measurement": "Interaction Term: treatment arm*CRP group, ACR20", "setting": "6 mg QD vs placebo: CRP-high versus CRP-low, adjusted for baseline DAS28", "value": 0.788},
      {"measurement": "Interaction Term for ACR20 response (ratio of odds ratios)", "setting": "6 mg QD vs placebo: IL-17A high versus IL-17A low, week 16", "value": 3.10},
      {"measurement": "Interaction Term for ACR20 response (ratio of odds ratios)", "setting": "6 mg QD vs placebo: IL-19 high versus IL-19 low, week 16", "value": 3.33},
      {"measurement": "ACR20 response rate over time", "setting": "6 mg QD, 12 mg QD, BD2-high and BD2-low groups (FIG. 10)", "value": "higher ACR20 response rates to deucravacitinib over time, compared to the response rate in the placebo arm, were observed in the BD2-high group but not in the BD2-low group"},
      {"measurement": "ACR20 response rate over time", "setting": "6 mg QD, 12 mg QD, CRP-high and CRP-low groups (FIG. 41)", "value": "higher response rates than the placebo arm"},
      {"measurement": "ACR20 response rate over time", "setting": "6 mg QD, 12 mg QD, IL-17A-high and IL-17A-low groups (FIG. 24)", "value": "higher ACR20 response rates over time were observed in the deucravacitinib treatment arms compared to placebo in IL-17A-high but not in IL-17A-low groups"},
      {"measurement": "ACR20 response rate over time", "setting": "6 mg QD, 12 mg QD, IL-19-high and IL-19-low groups (FIG. 17)", "value": "higher ACR20 response rates to deucravacitinib over time compared to placebo were observed in IL-19-high but not in IL-19-low groups"},
      {"measurement": "Number of subjects", "setting": "6 mg QD, ACR20 non-responder at week 16, above median baseline BD2 level", "value": 20},
      {"measurement": "Number of subjects", "setting": "6 mg QD, ACR20 non-responder at week 16, above median baseline IL-17A level", "value": 14},
      {"measurement": "Number of subjects", "setting": "6 mg QD, ACR20 non-responder at week 16, above median baseline IL-19 level", "value": 17},
      {"measurement": "Number of subjects", "setting": "6 mg QD, ACR20 non-responder at week 16, below median baseline BD2 level", "value": 14},
      {"measurement": "Number of subjects", "setting": "6 mg QD, ACR20 non-responder at week 16, below median baseline IL-17A level", "value": 19},
      {"measurement": "Number of subjects", "setting": "6 mg QD, ACR20 non-responder at week 16, below median baseline IL-19 level", "value": 16},
      {"measurement": "Number of subjects", "setting": "6 mg QD, ACR20 responder at week 16, above median baseline IL-17A level", "value": 21},
      {"measurement": "Number of subjects", "setting": "6 mg QD, ACR20 responder at week 16, above median baseline IL-19 level", "value": 21},
      {"measurement": "Number of subjects", "setting": "6 mg QD, ACR20 responder at week 16, below median baseline BD2 level", "value": 7},
      {"measurement": "Number of subjects", "setting": "6 mg QD, ACR20 responder at week 16, below median baseline IL-17A level", "value": 16},
      {"measurement": "Number of subjects", "setting": "6 mg QD, ACR20 responder at week 16, below median baseline IL-19 level", "value": 16},
      {"measurement": "Number of subjects, ACR20 Non-responder at week 16", "setting": "[1]", "value": 17},
      {"measurement": "Number of subjects, ACR20 Responder at week 16", "setting": "[1]", "value": 19},
      {"measurement": "Number of subjects, ACR20 Non-responder at week 16", "setting": "[2]", "value": 16},
      {"measurement": "Number of subjects, ACR20 Responder at week 16", "setting": "[2]", "value": 18},
      {"measurement": "Interaction Term for ACR20 response (ratio of odds ratios)", "setting": "12 mg QD vs placebo: BD2 high versus BD2 low, week 16", "value": 3.40},
      {"measurement": "Interaction Term: treatment arm*CRP group, ACR20", "setting": "12 mg QD vs placebo: CRP high versus CRP low", "value": 1.921},
      {"measurement": "Interaction Term: treatment arm*CRP group, ACR20", "setting": "12 mg QD vs placebo: CRP-high versus CRP-low, adjusted for baseline DAS28", "value": 1.930},
      {"measurement": "Interaction Term for ACR20 response (ratio of odds ratios)", "setting": "12 mg QD vs placebo: IL-17A high versus IL-17A low, week 16", "value": 2.78},
      {"measurement": "Interaction Term for ACR20 response (ratio of odds ratios)", "setting": "12 mg QD vs placebo: IL-19 high versus IL-19 low, week 16", "value": 7.35},
      {"measurement": "Number of subjects", "setting": "12 mg QD, ACR20 non-responder at week 16, above median baseline BD2 level", "value": 10},
      {"measurement": "Number of subjects", "setting": "12 mg QD, ACR20 non-responder at week 16, above median baseline IL-19 level", "value": 7},
      {"measurement": "Number of subjects", "setting": "12 mg QD, ACR20 non-responder at week 16, below median baseline BD2 level", "value": 11},
      {"measurement": "Number of subjects", "setting": "12 mg QD, ACR20 non-responder at week 16, below median baseline IL-17A level", "value": 15},
      {"measurement": "Number of subjects", "setting": "12 mg QD, ACR20 non-responder at week 16, below median baseline IL-19 level", "value": 17},
      {"measurement": "Number of subjects", "setting": "12 mg QD, ACR20 responder at week 16, above median baseline BD2 level", "value": 20},
      {"measurement": "Number of subjects", "setting": "12 mg QD, ACR20 responder at week 16, above median baseline IL-19 level", "value": 21},
      {"measurement": "Number of subjects", "setting": "12 mg QD, ACR20 responder at week 16, below median baseline BD2 level", "value": 10},
      {"measurement": "Number of subjects", "setting": "12 mg QD, ACR20 responder at week 16, below median baseline IL-19 level", "value": 20},
      {"measurement": "Number of subjects, ACR20 Non-responder at week 16", "setting": "[3]", "value": 9},
      {"measurement": "Number of subjects, ACR20 Responder at week 16", "setting": "[3]", "value": 24},
      {"measurement": "Number of subjects, ACR20 Non-responder at week 16", "setting": "[4]", "value": 16},
      {"measurement": "Number of subjects, ACR20 Responder at week 16", "setting": "[4]", "value": 18},
      {"measurement": "Odds Ratio, ACR20 response status", "setting": "6 mg QD vs placebo, not adjusted for baseline disease activity", "value": 2.456},
      {"measurement": "Odds Ratio for ACR20 response", "setting": "6 mg QD vs placebo, week 16", "value": 2.46},
      {"measurement": "Odds Ratio, ACR20 response status", "setting": "6 mg QD vs placebo, week 16, adjusted for baseline DAS28", "value": 2.443},
      {"measurement": "Odds Ratio, ACR20 response status", "setting": "12 mg QD vs placebo, not adjusted for baseline disease activity", "value": 3.609},
      {"measurement": "Odds Ratio for ACR20 response", "setting": "12 mg QD vs placebo, week 16", "value": 3.61},
      {"measurement": "Odds Ratio, ACR20 response status", "setting": "12 mg QD vs placebo, week 16, adjusted for baseline DAS28", "value": 3.618},
      {"measurement": "Odds Ratio for ACR20 response", "setting": "deucravacitinib treatment arms combined vs placebo, week 16", "value": 2.961},
      {"measurement": "Odds Ratio, ACR20 response status", "setting": "treatment arms combined vs placebo", "value": 2.961}
    ]}
  ]
}
